# Results taken from paper PMC10817170, “Effect of an NHE3 inhibitor in combination with an NPT2b inhibitor on gastrointestinal phosphate absorption in Rodent models” (PLOS ONE, 2024).
# pIC50: −log10 of the molar value.
# Columns and labels:
# [1] = target: T1, Human SGLT1 (Homo sapiens, UniProt P13866); assay: SGLT1 activity assay (14C-alpha-methyl-D-glucopyranoside uptake in CHO cells); type: cell-based; settings: geometric mean, n=4
# T1 construct: expressed in transfected cells; host or cells: CHO cells, constitutive expression
# T1 sequence (P13866 1-664): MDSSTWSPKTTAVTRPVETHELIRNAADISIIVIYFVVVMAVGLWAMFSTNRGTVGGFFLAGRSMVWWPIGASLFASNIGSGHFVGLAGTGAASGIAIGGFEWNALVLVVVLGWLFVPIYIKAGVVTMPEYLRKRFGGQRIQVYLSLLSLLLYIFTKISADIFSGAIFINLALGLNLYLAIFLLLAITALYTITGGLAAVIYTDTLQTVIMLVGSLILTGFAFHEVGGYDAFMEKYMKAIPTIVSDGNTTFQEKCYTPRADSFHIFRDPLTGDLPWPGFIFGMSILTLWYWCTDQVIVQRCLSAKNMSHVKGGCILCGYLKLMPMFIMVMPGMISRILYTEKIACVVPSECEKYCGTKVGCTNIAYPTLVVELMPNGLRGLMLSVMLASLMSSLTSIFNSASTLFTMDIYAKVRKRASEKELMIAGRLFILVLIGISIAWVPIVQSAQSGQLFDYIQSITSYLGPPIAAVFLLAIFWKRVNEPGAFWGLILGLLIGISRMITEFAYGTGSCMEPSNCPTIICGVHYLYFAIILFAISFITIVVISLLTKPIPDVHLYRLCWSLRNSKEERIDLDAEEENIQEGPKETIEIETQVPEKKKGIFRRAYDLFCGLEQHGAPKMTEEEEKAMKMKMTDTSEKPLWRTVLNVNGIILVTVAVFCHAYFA
# Protocol: Generation of constitutive human Pit-2 and SGLT1 overexpressing CHO cells and activity assays measuring the uptake of ^33P phosphate for 45 minutes at 20°C for Pit-2 and ^14C-α-methyl-D-glucopyranoside for 120 minutes at 37°C for SGLT1, were also described previously.
# [2] = test system: T2, NHE3; assay: Sodium excretion in urine after oral NaH2PO4 bolus in mice; type: in vivo; settings: sodium bolus plus 3 mg/kg po, urine 4 h, mean ± SEM
# T2 construct: from tissue; host or cells: intestine of living C57Bl/6 mice
# Protocol: The effect of LY3304000 on sodium and phosphate excretion in urine was also assessed in mice. A dosing solution of 3 mg/kg LY3304000 for a 10 mL/kg dose volume was formulated in 1% HEC. An NaH2PO4 dosing solution at a 690 mg/kg with a […] dosing volume was made in sterile water. Male C57Bl/6 mice were fasted for 4 hours with access to water and then orally dosed at 10 mL/kg with 1% HEC vehicle or 3 mg/kg LY3304000. Fifteen minutes later, mice were orally dosed with either sterile water or NaH2PO4 solution, and then immediately transferred to a mouse holder on a 96-well plate for spot urine collection. Urine samples were collected for 4 hours post sterile water or NaH2PO4 dose. Urinary sodium, creatinine, and phosphorus (as a measure of phosphate) were determined using a clinical biochemistry analyzer. The urinary sodium-to-creatinine ratio was calculated and compared between vehicle and LY3304000 treated groups.
# [3] = test system: acute phosphate uptake into plasma; assay: Acute radiolabeled phosphate uptake into plasma in rats; type: in vivo
# Protocol: A dosing solution for a 10 mg/kg dose of LY3304000 using a 10 mL/kg dosing volume was made in 1% HEC vehicle. The subsequent dosing solutions for 3, 1, 0.3, 0.1, 0.03, 0.01, 0.003, and 0.001 mg/kg were prepared by serial dilutions with HEC. A Radiolabeled Phosphate Dosing Solution was made in a 16.25 mM Na2HPO4, 0.9% saline, pH 7.4, solution with the addition of about 2.5 μCi/mL radioactive phosphate (H3^33PO4, PerkinElmer) and filtered before dosing. Following 12-hour fasting with access to water, male SD rats were orally dosed at 10 mL/kg with either vehicle or varying doses of LY3304000. Fifteen minutes later, 2 mL of the Radiolabeled Phosphate Dosing Solution was dosed by oral gavage. This dose of phosphate was chosen because it approximates the rat equivalent to the amount of bioavailable phosphate in a human meal, 4 mg/kg phosphorus, or 320 mg phosphorus for an 80 kg person on a phosphate restricted diet. Fifteen minutes later, blood was collected by cardiac stick, and plasma was prepared. Radioactivity (dpm) in 50 μL plasma was measured by scintillation counting. To determine the total radioactivity dosed to each rat, the radioactivity in two 10-μL samples of the Radiolabeled Phosphate Dosing Solution was measured by scintillation counting. To calculate the total radioactivity recovered in plasma, it was assumed that total blood volume constitutes about 60% of the body weight and plasma constitutes about 55% of the total blood. The mole amount of phosphate uptake was calculated as the percentage of administered radiolabeled phosphate recovered in the plasma of vehicle or LY3304000 treated rats multiplied by total phosphate amount in the radiolabeled phosphate dosing solution. ED50 values were then determined with a 4-parameter logistic curve fitting model using GraphPad Prism. A 15-minute time point, post phosphate dosing, was chosen for collecting blood in the acute phosphate uptake studies in rats and mice (see below) to capture the initial rate of phosphate absorption. We wanted to avoid measurements at longer time points when plasma radiolabeled phosphate appears to be at a steady state.
structure (smiles),measurement,setting,value
"CN1Cc2c(Cl)cc(Cl)cc2[C@H](c2cccc(S(=O)(=O)NCCOCCOCCN/C(=N\C(N)=O)NCCCCN/C(=N/C(N)=O)NCCOCCOCCNS(=O)(=O)c3cccc([C@@H]4CN(C)Cc5c(Cl)cc(Cl)cc54)c3)c2)C1.Cl.Cl [LY3304000, (Z)-[[4-[[(Z)-N’-carbamoyl-N-[2-[2-[2-[[3-[(4S)-6,8-dichloro-2-methyl-3,4-dihydro-1H-isoquinolin-4-yl]phenyl]sulfonylamino]ethoxy]ethoxy]ethyl]carbamimidoyl]amino]butylamino]-[2-[2-[2-[[3-[(4S)-6,8-dichloro-2-methyl-3,4-dihydro-1H-isoquinolin-4-yl]phenyl]sulfonylamino]ethoxy]ethoxy]ethylamino]methylene]urea dihydrochloride]",pIC50,[1],5.18
same,Urinary sodium-to-creatinine ratio,[2],14.6 ± 1.7 mg/mg
same,maximal inhibition of phosphate uptake,[3],37%
same,ED50,"[3]; Rattus norvegicus, po, 0.25 h, oral, plasma 15 min post 33P phosphate, read-out: ED50 (decrease of phosphate uptake)",0.04 mg/kg
same,"Emax, Pi uptake",[3]; curve fit,266.8 nmol
same,ED50 (decrease of phosphate uptake),"[3]; oral, plasma 15 min post 33P phosphate",0.041 mg/kg
same,"radiolabeled phosphate in plasma, maximal determined decrease",[3]; vehicle 416 nmoles,264 nmol
